pIC50: −log10 of the molar value. Calls of active or inactive are those of the source. The calls are words filed in the database; no cut-off is given here.
Key:
Mus musculus [1] = test: In vivo PROTAC activity at CRBN/MNK1 in human MV4-11 cells xenografted in nude female NSG mouse assessed as reduction in phosphorylated eIF4E level at 20 mg/kg, ip qd administrated for 16 days by Western blot analysis; type: functional, organism-based; conditions: time 16.0 day
Mus musculus [2] = test: In vivo PROTAC activity at CRBN/MNK1 in human MV4-11 cells xenografted in nude female NSG mouse assessed as induction of MNK1 degradation at 20 mg/kg, ip qd administrated for 16 days by Western blot analysis; type: functional, organism-based; conditions: time 16.0 day
MOLM-13 = test: Anti-proliferative activity against human MOLM-13 cells measured after 72 hrs by CCK8 assay; conditions: MOLM-13, 72 h
MDA-MB-231 = test: Anti-proliferative activity against human MDA-MB-231 cells measured after 96 hrs by CCK8 assay; conditions: MDA-MB-231, 96 h
MV4-11 [3] = test: Downregulation of SBNO2 expression level in human MV4-11 cells at 300 nM incubated for 24 hrs by DIA-based quantitative proteomics analysis; type: functional, cell-based
MV4-11 [4] = test: Downregulation of C9orf40 expression level in human MV4-11 cells at 300 nM incubated for 24 hrs by DIA-based quantitative proteomics analysis; type: functional, cell-based
MV4-11 [5] = test: Effect on GSPT1 expression in human MV4-11 cells at 10 to 1000 nM incubated for 24 hrs by immunoblot analysis; type: functional, cell-based; conditions: dose 10-1000 nM
MV4-11 [6] = test: Effect on IKZF1 expression in human MV4-11 cells at 10 to 1000 nM incubated for 24 hrs by immunoblot analysis; type: functional, cell-based; conditions: dose 10-1000 nM
MV4-11 [7] = test: Induction of MNK2 degradation in human MV4-11 cells at 10 to 1000 nM incubated for 24 hrs by immunoblot analysis; type: cell-based; conditions: dose 10-1000 nM
MV4-11 [8] = test: Upregulation of apoptosis pathway related protein expression in human MV4-11 cells by GO analysis; type: functional, cell-based
MV4-11 [9] = test: Upregulation of PI3K-Akt pathway related protein expression in human MV4-11 cells by KEGG analysis; type: functional, cell-based
MV4-11 [10] = test: Induction of apoptosis in human MV4-11 cells assessed as early apoptotic cells at 30 nM incubated for 24 hrs by Annexin V-FITC/PI dual staining based flow cytometric analysis (reference value: 3.42 %); type: functional
MV4-11 [11] = test: Induction of apoptosis in human MV4-11 cells assessed as necrotic cells at 30 nM incubated for 24 hrs by Annexin V-FITC/PI dual staining based flow cytometric analysis (reference value: 0.16 %); type: functional
MV4-11 [12] = test: Induction of apoptosis in human MV4-11 cells assessed as viable cells at 300 nM incubated for 24 hrs by Annexin V-FITC/PI dual staining based flow cytometric analysis (reference value: 94.9 %); type: functional; conditions: read-out: Activity
MV4-11 [13] = test: Induction of apoptosis in human MV4-11 cells assessed as early apoptotic cells at 300 nM incubated for 24 hrs by Annexin V-FITC/PI dual staining based flow cytometric analysis (reference value: 3.42 %); type: functional
MV4-11 [14] = test: Induction of apoptosis in human MV4-11 cells assessed as necrotic cells at 300 nM incubated for 24 hrs by Annexin V-FITC/PI dual staining based flow cytometric analysis (reference value: 0.16 %); type: functional
MV4-11 [15] = test: Induction of cell cycle arrest in human MV4-11 cells assessed as increase in accumulation of cells at G1 phase at 30 to […] incubated for 24 hrs by PI staining based flow cytometric analysis; type: functional; conditions: dose lower 30.0 µM
MV4-11 [16] = test: Induction of cell cycle arrest in human MV4-11 cells assessed as decrease in accumulation of cells at S phase incubated for 24 hrs by PI staining based flow cytometric analysis; type: functional; conditions: dose 30-300 µM
MV4-11 [17] = test: Induction of cell cycle arrest in human MV4-11 cells assessed as decrease in accumulation of cells at G2 phase incubated for 24 hrs by PI staining based flow cytometric analysis; type: functional; conditions: dose 30-300 µM
[18] = Cmax in male Sprague-Dawley rat at 5 mg/kg, ip measured up to 24 hrs by LC-MS analysis; type: ADME, organism-based; conditions: in vivo
[19] = AUC (0 to t) in male Sprague-Dawley rat at 1 mg/kg, iv measured up to 24 hrs by LC-MS analysis; type: ADME, organism-based; conditions: in vivo
[20] = AUC (0 to t) in male Sprague-Dawley rat at 20 mg/kg, po measured up to 24 hrs by LC-MS analysis; type: ADME, organism-based; conditions: in vivo
[21] = Tmax in male Sprague-Dawley rat at 5 mg/kg, ip measured up to 24 hrs by LC-MS analysis; type: ADME, organism-based; conditions: in vivo
[22] = Clearance in male Sprague-Dawley rat at 5 mg/kg, ip measured up to 24 hrs by LC-MS analysis; type: ADME, organism-based; conditions: in vivo
[23] = Oral bioavailability in male Sprague-Dawley rat at 20 mg/kg measured up to 24 hrs by LC-MS analysis; type: ADME, organism-based; conditions: in vivo
MV4-11 [24] = test: Antitumor activity against human MV4-11 cells xenografted in nude female NSG mouse assessed as tumor growth inhibition at 20 mg/kg, ip qd administrated for 16 days by caliper method relative to control; type: functional; conditions: MV4-11, 384 h, time 16 day, read-out: TGI
[25] = Toxicity in nude female NSG mouse xenografted with human MV4-11 cells assessed as change in body weight at 20 mg/kg, ip qd administrated for 16 days; type: organism-based; conditions: in vivo, 384 h, time 16 day
Mus musculus [26] = test: In vivo induction of MNK2 degradation in human MV4-11 cells xenografted in nude female NSG mouse at 20 mg/kg, ip qd administrated for 16 days; type: functional, organism-based; conditions: time 16.0 day
[27] = Hepatotoxicity in nude female NSG mouse xenografted with human MV4-11 cells assessed as change in serum ALT level at 20 mg/kg, ip qd administrated for 16 days; type: toxicity, organism-based; conditions: in vivo, 384 h, time 16 day
[28] = Hepatotoxicity in nude female NSG mouse xenografted with human MV4-11 cells assessed as change in serum TBIL level at 20 mg/kg, ip qd administrated for 16 days; type: toxicity, organism-based; conditions: in vivo, 384 h, time 16 day
[29] = Hepatotoxicity in nude female NSG mouse xenografted with human MV4-11 cells assessed as change in serum TBA level at 20 mg/kg, ip qd administrated for 16 days; type: toxicity, organism-based; conditions: in vivo, 384 h, time 16 day
[30] = Toxicity in male ICR mouse assessed as change in serum TBIL level at 100 mg/kg, ip measured after 14 days; type: organism-based; conditions: in vivo, 336 h, time 14 day
[31] = Toxicity in male ICR mouse assessed as change in serum DBIL level at 100 mg/kg, ip measured after 14 days; type: organism-based; conditions: in vivo, 336 h, time 14 day
[32] = Toxicity in male ICR mouse assessed as change in serum ALP level at 100 mg/kg, ip measured after 14 days; type: organism-based; conditions: in vivo, 336 h, time 14 day
[33] = Toxicity in male ICR mouse assessed as change in serum CK-MB level at 100 mg/kg, ip measured after 14 days; type: organism-based; conditions: in vivo, 336 h, time 14 day
[34] = Toxicity in nude female NSG mouse xenografted with human MV4-11 cells assessed as change in serum AST level at 20 mg/kg, ip qd administrated for 16 days; type: organism-based; conditions: in vivo, 384 h, time 16 day
[35] = Toxicity in nude female NSG mouse xenografted with human MV4-11 cells assessed as change in serum uric acid level at 20 mg/kg, ip qd administrated for 16 days; type: organism-based; conditions: in vivo, 384 h, time 16 day

**Q.** Which results are given for O=C1CCC(N2Cc3c(NC(=O)CCCCCC(=O)N4CCC(C(=O)Nc5ncc(-c6ccccc6)s5)CC4)cccc3C2=O)C(=O)N1 (configuration not stated)?
**A.** Activity (Mus musculus [1]): Active; Activity (Mus musculus [2]): Active; pIC50 (MOLM-13): 6.21; pIC50 (MDA-MB-231): 5.69; Activity (MV4-11 [3]): Active; Activity (MV4-11 [4]): Active; Activity (MV4-11 [5]): No effect; Activity (MV4-11 [6]): No effect; Activity (MV4-11 [7]): inactive; Activity (MV4-11 [8]): Active; Activity (MV4-11 [9]): Active; Activity (MV4-11 [10]): 6.46%; Activity (MV4-11 [11]): 0.27%; viability at 0.3 µM (MV4-11 [12]): 28%; Activity (MV4-11 [13]): 28.6%; Activity (MV4-11 [14]): 1.36%; Activity (MV4-11 [15]): Active; Activity (MV4-11 [16]): Dose-dependent-effect; Activity (MV4-11 [17]): Dose-dependent-effect; Cmax [18]: 1970 ng/mL; AUC(0-t) at 24 h [19]: 7020 ng·h/mL; AUC(0-t) at 24 h [20]: 2950 ng·h/mL; Tmax [21]: 30 min; CL/F [22]: 8.75 mL/min/kg; bioavailability [23]: 2.1%; inhibition in vivo at 20 mg/kg (MV4-11 [24]): > 90%; Activity [25]: Non-toxic; Activity (Mus musculus [26]): inactive; Activity [27]: Non-toxic; Activity [28]: Non-toxic; Activity [29]: Non-toxic; Activity [30]: Non-toxic; Activity [31]: Non-toxic; Activity [32]: Non-toxic; Activity [33]: Non-toxic; Activity [34]: Non-toxic; Activity [35]: Non-toxic

From ChEMBL document CHEMBL6177991, “Discovery of P11-2: A Potent First-in-Class MNK1-Targeting PROTAC Degrader for the Treatment of Cancer” (J Med Chem, 2025)
